Drawing on ChEMBL document CHEMBL1139783, “Cyclonatsudamine A, a new vasodilator cyclic peptide from Citrus natsudaidai” (2007), this text covers Activity for one molecule.

In assay [1] the test system is Aorta. In words: Vasorelaxation effect on norepinephrine-induced contractions in rat aorta with endothelium at 0.1 uM. Type of assay: functional. The arrangement: scale not given: the % may be the effect or the level left.
Assay [2] relates to Aorta. In words: Vasorelaxation effect on norepinephrine-induced contractions in rat endothelium-denuded aorta. Format: functional, tissue-based.
Assay [3] deals with Aorta. In words: Vasorelaxation effect on norepinephrine-induced contractions in rat aorta with endothelium at 100 uM. Also on record: scale not given: the % may be the effect or the level left. Format: functional.
For assay [4], the system named is Aorta. In words: Inhibition of drug-induced vasorelaxation in rat aorta precontracted with norepinephrine in presence of nitric oxide synthase inhibitor L-NAME. Type of assay: functional, tissue-based.

Calls of active or inactive are those of the source. The rule behind the calls is not given here. Where a SMILES comes first, the peptide text is derived from it.

As for `CC(C)C[C@@H]1NC(=O)[C@H](Cc2ccc(O)cc2)NC(=O)CNC(=O)[C@H](CO)NC(=O)[C@@H]2CCCN2C(=O)[C@@H]2CCCN2C(=O)[C@H](CC(C)C)NC1=O` [CYCONATSUDAMINE A] (cyclo(GYLLPPS)), the results for the Activity in assay [1] and in assay [3] were 40% and 80%, respectively. For the same molecule, the result in assay [2] was inactive. In addition, the result in assay [4] was Active.
